Results from PubChem BioAssay (NCI).
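Grown in 96-well plates, cells were treated for 48 hours with each compound at five concentrations. Insufficient inhibition: endpoint recorded as highest concentration tested. GI50 marks 50% less growth. Definition used: TGI = concentration required for complete inhibition of growth.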

Key:
Experiment in all cases: NCI-60 cell line screen, 48 h
SNB-78 CNS = system: SNB-78 CNS
BT-549 breast = system: BT-549 breast
DMS 114 small cell lung = system: DMS 114 small cell lung
HOP-18 NSCLC = system: HOP-18 NSCLC
M19-MEL melanoma = system: M19-MEL melanoma
MDA-N = system: MDA-N
DMS 273 small cell lung = system: DMS 273 small cell lung
LXFL 529 NSCLC = system: LXFL 529 NSCLC
KM20L2 colon = system: KM20L2 colon

Compound	TGI (SNB-78 CNS) [µM]	TGI (BT-549 breast) [µM]	TGI (DMS 114 small cell lung) [µM]	TGI (HOP-18 NSCLC) [µM]	TGI (M19-MEL melanoma) [µM]	TGI (MDA-N) [nM]	TGI (DMS 273 small cell lung) [µM]	TGI (LXFL 529 NSCLC) [µM]	TGI (KM20L2 colon) [µM]	GI50 (BT-549 breast) [nM]	GI50 (MDA-N) [nM]	GI50 (SNB-78 CNS) [µM]	GI50 (DMS 114 small cell lung) [µM]	GI50 (HOP-18 NSCLC) [µM]	GI50 (M19-MEL melanoma) [µM]	GI50 (DMS 273 small cell lung) [µM]	GI50 (LXFL 529 NSCLC) [µM]	GI50 (KM20L2 colon) [µM]
CCOC(=O)Nc1nc2ccc(Cn3cccc3)cc2[nH]1	> 100	> 100	> 100	> 100	> 100	965	> 100	> 100	12.9	–	–	–	–	–	–	–	–	–
CCN(CC)CC(O)CNc1ccc(NCC2CO2)c2c1C(=O)c1ccccc1C2=O (stereo unspecified)	2.6	4.27	4.43	37	0.577	2310	1.68	0.247	8.63	1220	257	–	–	–	–	–	–	–
CCNC(=O)CCN(C(=O)O)S(=O)(=O)c1ccc(NC(=O)c2ccccc2)cc1	> 100	–	> 100	> 100	> 100	–	41.3	> 100	> 100	–	–	–	–	–	–	–	–	–
CC(=O)OCC1OC(N2C(=O)C(=O)c3cc(C)ccc32)C(OC(C)=O)C(OC(C)=O)C1OC(C)=O (stereo unspecified)	> 100	–	> 100	> 100	> 100	–	> 100	> 100	> 100	–	–	–	–	–	–	–	–	–
COc1ccccc1N1C(=O)/C(=C/c2ccc(N(CCC#N)CCC#N)cc2C)N=C1c1cc([N+](=O)[O-])ccc1Cl	> 100	–	> 100	> 100	56.3	–	> 100	> 100	> 100	–	–	–	–	–	–	–	–	–
CCOC(=O)C(N)C[S][Sn]([CH3])([CH3])[Cl] (stereo unspecified)	> 100	–	> 100	> 100	> 100	–	> 100	> 100	> 100	–	–	> 94.3	97.4	> 100	> 89.1	> 100	28.7	> 100
O=[N+]([O-])c1cccc(C2N3CCCCC3[C@@H]3c4[nH]c5ccccc5c4CCN23)c1 (stereo partly specified)	26.1	–	22.2	> 100	25	–	26	60.8	22.9	–	–	–	–	–	–	–	–	–
CC(=O)c1cccc(N2COC(C)(C)c3nc4ccccc4n3C2)c1	> 100	–	> 100	> 100	> 100	–	> 100	> 100	> 100	–	–	–	–	–	–	–	–	–
CC/C(C)=C1\CCC(CN2CCOCC2)C1=O (stereo unspecified)	50.5	–	18.6	34.1	30	–	32.4	23.7	36.7	–	–	–	–	–	–	–	–	–
